Experimental data: US7030145B2, “Pyridinyl derivatives for the treatment of depression” (Bristol-Myers Squibb Company, priority 2003, dated 2006)

Tests used:
[1] = target: T1, cloned human CRF-R1 receptors (Homo sapiens, UniProt P34998); assay: CRF-R1 receptor binding assay (inhibition of 125I-ovine-CRF binding to cell membranes); design: key to activity (Ki class in the CRF assays): a: Ki≦100 nM; b: 100 nM<Ki≦500 nM; c: 500 nM<Ki≦5,000 nM; activity reported in percent inhibition at 10 μM; conditions: membranes of 293EBNA cells transfected with hCRFR1, class d = reported as percent inhibition at 10 μM, figures not given; for Ki: read-out: activity (Ki class in the CRF assays)
T1 construct: the coding region was amplifies by PCR from start to stop codons; expressed in transfected cells; membranes
T1 sequence (P34998 24-415): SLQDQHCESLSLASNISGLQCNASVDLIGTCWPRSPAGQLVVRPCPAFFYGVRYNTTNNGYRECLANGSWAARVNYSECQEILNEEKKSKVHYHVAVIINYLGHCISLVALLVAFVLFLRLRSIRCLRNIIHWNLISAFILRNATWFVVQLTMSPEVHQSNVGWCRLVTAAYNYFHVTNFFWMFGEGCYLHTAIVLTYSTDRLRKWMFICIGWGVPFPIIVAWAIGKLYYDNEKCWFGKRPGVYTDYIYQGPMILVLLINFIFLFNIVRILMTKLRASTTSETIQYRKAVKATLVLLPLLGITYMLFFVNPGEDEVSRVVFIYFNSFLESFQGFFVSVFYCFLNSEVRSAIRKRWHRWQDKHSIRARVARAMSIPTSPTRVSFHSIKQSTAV
Excerpt: The following is a description of the isolation of cell membranes containing cloned human CRF-R1 receptors for use in a standard binding assay as well as a description of the assay itself.
Messenger RNA was isolated from human hippocampus. […]. The mRNA was reverse transcribed using oligo (dt) 12–18 and the coding region was amplifies by PCR from start to stop codons. The resulting PCR fragment was cloned into the EcoRV site of pGEMV, from whence the insert was reclaimed using XhoI+XbaI and cloned into the XhoI+XbaI sites of vector pm3 as (which contains a CMV promoter, the SV′t′ splice and early poly A signals, an Eptein-Barr viral origin of replication, and a hygromycin selectable marker). The resulting expression vector, called phchCRFR was transfected in 293EBNA cells and cells retaining the episome were selected in the presence of […] hygromycin. Cells surviving 4 weeks of selection in hygromycin were pooled, adapted to growth in suspension and used to generate membranes for the binding assay described below. Individual aliquots containing approximately 1×10^8 of the suspended cells were then centrifuged to form a pellet and frozen. For the binding assay a frozen pellet described above containing 293EBNA cells transfected with hCRFR1 receptors is homogenized in 10 mL of ice cold tissue buffer (50 mM HEPES buffer pH 7.0, containing 10 MM MgCl2, 2 mM EGTA, 1 μg/mL apotinin, 1 μg/mL leupeptin and 1 μg/mL pepstatin). The homoginate is centrifuged at 40,000×g for 12 min and the resulting pellet rehomogenized in 10 mL of tissue buffer. After another centrifugation at 40,000×g for 12 min, the pellet is resuspended to a protein concentration of 360 μg/mL to be used in the assay.
Binding assays are performed in 96 well plates; each well having a 300 μL capacity. To each well is added 50 μL of test drug dilutions (final concentration of drugs range from 10^−10–10^−5 M), 100 μL of ^125I-ovine-CRF (^125I-o-CRF) (final concentration 150 pM) and 150 μL of the cell homoginate described above. Plates are then allowed to incubate at room temperature for 2 hours before filtering the incubate over GF/F filters (presoaked with 0.3% polyethyleneimine) using an appropriate cell harvester. Filters are rinsed 2 times with ice cold assay buffer before removing individual filters and assessing them for radioactivity on a gamma counter.
Curves of the inhibition of ^125I-o-CRF binding to cell membranes at various dilutions of test drug are analyzed by the iterative curve fitting program LIGAND [P. J. Munson and D. Rodbard, Anal. Biochem., 107:220 (1980), which provides Ki values for inhibition which are then used to assess biological activity. […]
Messenger RNA was isolated from human hippocampus. The mRNA was isolated from human hippocampus. The mRNA was reverse transcribed using oligo (dt) 12–18 and the coding region was amplifies by PCR from start to stop codons. The resulting PCR fragment was cloned into the EcoRV site of pGEMV, from whence the insert was reclaimed using XhoI+XbaI and cloned into the XhoI+XbaI sites of vector pm3 as (which contains a CMV promoter, the SV′t′ splice and early poly A signals, an Eptein-Barr viral origin of replication, and a hygromycin selectable marker). The resulting expression vector, called phchCRFR was transfected in 293EBNA cells and cells retaining the episome were selected in the presence of […] hygromycin. Cells surviving 4 weeks of selection in hygromycin were pooled, adapted to growth in suspension and used to generate membranes for the binding assay described below. […]
A frozen pellet described above containing 293EBNA cells transfected with hCRFR1 receptors or the rat frontal cortex tissue dissected from frozen rat brains was prepared as the source of membranes expressing CRF1 receptors used in binding assays. […]

**Q.** For `COc1ccc(Nc2nc(C)ccc2S(=O)(=O)c2ccc(OCc3ccccc3OC)cc2)c(C)c1` [Example 1, {3-[4-(2-Methoxybenzyloxy)-benzenesulfonyl]-6-methylpyridin-2-yl}-(4-methoxy-2-methylphenyl)-amine], which “activity (Ki class in the CRF assays)” value [1] is on record?
**A.** d

**Q.** What about the melting point of the same compound?
**A.** 70 to 72 °C

**Q.** With `COc1cc(Cl)c(Nc2nc(C)ccc2S(=O)(=O)c2ccc(OCc3ccccc3OC)cc2)cc1F` [Example 2, (2-Chloro-5-fluoro-4-methoxyphenyl)-{3-[4-(2-methoxybenzyloxy)-benzenesulfonyl]-6-methylpyridin-2-yl}-amine] as the compound, how does the “activity (Ki class in the CRF assays)” value [1] read?
**A.** d

**Q.** And the melting point?
**A.** 62 to 64 °C

**Q.** With `COc1ccccc1COc1ccc(S(=O)(=O)c2ccc(C)nc2Nc2cc(F)c(N(C)C)cc2Cl)cc1` [Example 3, 2-Chloro-5-fluoro-N^1-{3-[4-(2-methoxybenzyloxy)-benzenesulfonyl]-6-methylpyridin-2-yl}-N^4,N^4-dimethylbenzene-1,4-diamine] as the compound, how does the “activity (Ki class in the CRF assays)” value [1] read?
**A.** d

**Q.** What about the melting point of the same compound?
**A.** 68 to 70 °C

**Q.** Which “activity (Ki class in the CRF assays)” value [1] does the source give for `COc1ccccc1COc1ccc(S(=O)(=O)c2ccc(C)nc2Nc2cc(OC)c(OC)cc2C)cc1` [Example 4, (4,5-Dimethoxy-2-methylphenyl)-{3-[4-(2-methoxybenzyloxy)-benzenesulfonyl]-6-methylpyridin-2-yl}-amine] here?
**A.** d

**Q.** What about the melting point of the same compound?
**A.** 62 to 66 °C

**Q.** Which “activity (Ki class in the CRF assays)” value [1] does the source give for `COc1ccccc1COc1ccc(S(=O)(=O)c2ccc(C)nc2Nc2ccc(OC(F)F)cc2Cl)cc1` [Example 5, (2-Chloro-4-difluoromethoxyphenyl)-{3-[4-(2-methoxybenzyloxy)-benzenesulfonyl]-6-methylpyridin-2-yl}-amine] here?
**A.** d

**Q.** And the melting point?
**A.** 124 to 125 °C

**Q.** Which results are given for `COc1ccccc1COc1ccc(S(=O)(=O)c2ccc(C)nc2Nc2cc(OC)c(OC)cc2Cl)cc1` [Example 6, (2-Chloro-4,5-dimethoxyphenyl)-{3-[4-(2-methoxybenzyloxy)-benzenesulfonyl]-6-methylpyridin-2-yl}-amine]?
**A.** activity (Ki class in the CRF assays) [1]: d; melting point: 149 to 151 °C

**Q.** Which “activity (Ki class in the CRF assays)” value [1] does the source give for `COc1ccccc1COc1ccc(S(=O)(=O)c2ccc(C)nc2Nc2ccc(S(C)(=O)=O)cc2Cl)cc1` [Example 7, (2-Chloro-4-methanesulfonylphenyl)-{3-[4-(2-methoxybenzyloxy)-benzenesulfonyl]-6-methylpyridin-2-yl}-amine] here?
**A.** d

**Q.** And the melting point?
**A.** 100 to 102 °C

**Q.** For `COc1ccccc1COc1ccc(S(=O)(=O)c2ccc(C)nc2Nc2ccc(Cl)cc2C#N)cc1` [Example 8, 5-Chloro-2-{3-[4-(2-methoxybenzyloxy)-benzenesulfonyl]-6-methylpyridin-2-ylamino}-benzonitrile], which “activity (Ki class in the CRF assays)” value [1] is on record?
**A.** d

**Q.** What about the melting point of the same compound?
**A.** 178 to 180 °C

**Q.** For `COc1ccc(S(=O)(=O)c2ccc(C)nc2Nc2c(C)cc(C)cc2C)cc1` [Example 9, [3-(4-Methoxybenzenesulfonyl)-6-methylpyridin-2-yl]-(2,4,6-trimethylphenyl)-amine], which Ki [1] is on record?
**A.** 100 to 500 nM

**Q.** What about the melting point of the same compound?
**A.** 165 to 167 °C

**Q.** Which results are given for `Cc1cc(C)c(Nc2nc(C)ccc2S(=O)(=O)c2ccc(O)cc2)c(C)c1` [Example 10, 4-[6-Methyl-2-(2,4,6-trimethylphenylamino)-pyridine-3-sulfonyl]-phenol]?
**A.** Ki [1]: 500 to 5000 nM; melting point: 226 to 228 °C

**Q.** For `Cc1cc(C)c(Nc2nc(C)ccc2S(=O)(=O)c2ccc(OCc3ccccc3)cc2)c(C)c1` [Example 11, [3-(4-Benzyloxybenzenesulfonyl)-6-methylpyridin-2-yl]-(2,4,6-trimethylphenyl)-amine], which Ki [1] is on record?
**A.** ≤ 100 nM

**Q.** And the melting point?
**A.** 158 to 160 °C

**Q.** With `CCOc1ccc(S(=O)(=O)c2ccc(C)nc2Nc2c(C)cc(C)cc2C)cc1` [Example 12, [3-(4-Ethoxybenzenesulfonyl)-6-methylpyridin-2-yl]-(2,4,6-trimethylphenyl)-amine] as the compound, how does the “activity (Ki class in the CRF assays)” value [1] read?
**A.** d

**Q.** And the melting point?
**A.** 157 to 159 °C

**Q.** With `Cc1cc(C)c(Nc2nc(C)ccc2S(=O)(=O)c2ccc(OCCCC#N)cc2)c(C)c1` [Example 14, 4-{4-[6-Methyl-2-(2,4,6-trimethylphenylamino)-pyridine-3-sulfonyl]-phenoxy}-butyronitrile] as the compound, how does the Ki [1] read?
**A.** 500 to 5000 nM

**Q.** What about the melting point of the same compound?
**A.** 160 to 162 °C

**Q.** For `Cc1cc(C)c(Nc2nc(C)ccc2S(=O)(=O)c2ccc(OCCCCC#N)cc2)c(C)c1` [Example 15, 5-{4-[6-Methyl-2-(2,4,6-trimethylphenylamino)-pyridine-3-sulfonyl]-phenoxy}-pentanenitrile], which Ki [1] is on record?
**A.** 100 to 500 nM

**Q.** And the melting point?
**A.** 115 to 116 °C

**Q.** With `Cc1cc(C)c(Nc2nc(C)ccc2S(=O)(=O)c2ccc(OCCCO)cc2)c(C)c1` [Example 16, 3-{4-[6-Methyl-2-(2,4,6-trimethylphenylamino)-pyridine-3-sulfonyl]-phenoxy}-propan-1-ol] as the compound, how does the Ki [1] read?
**A.** 500 to 5000 nM

**Q.** And the melting point?
**A.** 152 to 153 °C

**Q.** With `CCOC(=O)COc1ccc(S(=O)(=O)c2ccc(C)nc2Nc2c(C)cc(C)cc2C)cc1` [Example 17, {4-[6-Methyl-2-(2,4,6-trimethylphenylamino)-pyridine-3-sulfonyl]-phenoxy}-acetic acid ethyl ester] as the compound, how does the Ki [1] read?
**A.** 500 to 5000 nM

**Q.** What about the melting point of the same compound?
**A.** 116 to 118 °C

**Q.** What does the source list for `CCC(Oc1ccc(S(=O)(=O)c2ccc(C)nc2Nc2c(C)cc(C)cc2C)cc1)C(=O)OC` (stereo not drawn) [Example 18, 2-{4-[6-Methyl-2-(2,4,6-trimethylphenylamino)-pyridine-3-sulfonyl]-phenoxy}-butyric acid methyl ester]?
**A.** Ki [1]: 100 to 500 nM; melting point: 111 to 113 °C

**Q.** What does the source list for `Cc1cc(C)c(Nc2nc(C)ccc2S(=O)(=O)c2ccc(OCc3ccccn3)cc2)c(C)c1` [Example 19, {6-Methyl-3-[4-(pyridin-2-ylmethoxy)-benzenesulfonyl]-pyridin-2-yl}-(2,4,6-trimethylphenyl)-amine]?
**A.** Ki [1]: 100 to 500 nM; melting point: 182 to 184 °C

**Q.** Which Ki [1] does the source give for `Cc1cc(C)c(Nc2nc(C)ccc2S(=O)(=O)c2ccc(OCc3cc(Cl)nc(Cl)c3)cc2)c(C)c1` [Example 20, {3-[4-(2,6-Dichloropyridin-4-ylmethoxy)-benzenesulfonyl]-6-methylpyridin-2-yl}-(2,4,6-trimethylphenyl)-amine] here?
**A.** 100 to 500 nM

**Q.** And the melting point?
**A.** 192 to 201 °C

**Q.** With `Cc1cc(C)c(Nc2nc(C)ccc2S(=O)(=O)c2ccc(OCc3csc(C)n3)cc2)c(C)c1` [Example 21, {6-Methyl-3-[4-(2-methylthiazol-4-ylmethoxy)-benzenesulfonyl]-pyridin-2-yl}-(2,4,6-trimethylphenyl)-amine] as the compound, how does the Ki [1] read?
**A.** 100 to 500 nM

**Q.** And the melting point?
**A.** 200 to 201 °C

**Q.** Which Ki [1] does the source give for `Cc1cc(C)c(Nc2nc(C)ccc2S(=O)(=O)c2ccc(OCc3ccc(F)cc3)cc2)c(C)c1` [Example 22, {3-[4-(4-Fluorobenzyloxy)-benzenesulfonyl]-6-methylpyridin-2-yl}-(2,4,6-trimethylphenyl)-amine] here?
**A.** 100 to 500 nM

**Q.** What about the melting point of the same compound?
**A.** 178 to 180 °C
